Experimental data: patent publication US20140106387A1, “METHOD FOR CONTROLLING NAD(P)/NAD(P)H RATIO BY OXIDOREDUCTASE” (MD BIOALPHA CO., LTD., priority 2006, published 2014)

Legend:
cardiomyocytes = assay: intracellular NAD(P)H fluorescence in cardiomyocytes; type: cell-based
Description: HepG2 (human hepatoma cell line), HEK293 (Human embryonic kidney cell line), and C2C12/L6 myoblasts were purchased from American Type Culture Collection (ATCC, Manassas, Va., USA). LKB-/- MEFs were purchased from R.A. DePinho. Rat ventricular myocytes were enzymatically isolated from the heart of adult […] by a known method. Phosphorylation of AMPK ([…]) and ACC ([…]) was measured by Western blot analysis using Cell Signaling Technologies and pan- and phospho-specific antibodies (Upstate Biotechnology, Inc., Lake Placid, N.Y.). In order to monitor monochromatic fluorescence (350 nm), light was illuminated using a 75 W xenon arc lamp directed via a 10 Hz chopper wheel; specific fluorescence intensity was measured at a wavelength of 405±15 nm and 460±10 nm. Even though autofluorescence at 460 nm may occur from unknown intracellular components or cytosolic NAD(P)H, most of the light detected by the method of the present invention was generated from mitochondrial NAD(P)H. Specifically, the NQO1 activity and changes in the intracellular NAD(P)H fluorescence concentration in the presence/absence of NQO1 activity were measured in HepG2, HEK293 and pSG5 HA-NQO1 or pSG5 HA NQO1 […]-inserted HEK293 cells.

[1] = body weight and dietary intake of leptin receptor-deficient (ob/ob) mice; type: in vivo, mouse
Description: All experimental animal procedures were performed according to a guideline of Institutional Animal Care and Use Committee, Chungnam National University School of Medicine. OLETF rats were purchased from Otsuka Research Institute. Male ob/ob and C57BL/6 mice were purchased from Jackson Laboratory. Animals were housed in a breeding room maintained at a constant temperature of […] and a 12 h/12 h light/dark (L/D) cycle. 4-week-old C57BL/6 male mice were fed ad libitum high fat diet (HFD, 24% (w/w) and 45% calories as fat, Research Diets Inc., New Brunswick, N.J. 08901, US) for 7 weeks. Mouse groups were divided into an untreated group, a vehicle-treated group (calcium silicate), a pair-fed group and a candidate compound-treated group (calcium silicate-coated […] nanoparticles). Body weight and dietary intake of animals were daily measured. Upon completion of experiments, some mice of each group were anesthetized and received MRI examinations. The remaining mice of the groups were anatomized and tissue weight thereof was measured. Epidydimal fat, liver, soleus muscle and extensor digitorum longus (EDL) were prepared, and immunohistochemical, oil-red 0 and pH-sensitive ATPase staining were performed for analysis.
FIGS. 46 and 47 show changes in dietary intake/body weight and changes in body weight for 56 days, according to daily administration of pyrano-1,2-naphthoquinone into leptin receptor-deficient (ob/ob) mice at a dose of 200 mg/kg via an oral route.
This Example was intended to examine effects of varying in vivo NAD(P)^+/NAD(P)H ratio by arbitrary external supply of NAD(P)^+, a method capable of elevating the NAD(P)^+/NAD(P)H ratio in vivo. 100 mg/kg of NAD^+ was administered daily to leptin receptor-deficient (ob/ob) mice via an intraperitoneal (i.p.) route. A control mice group was given i.p. administration of physiological saline at the same dose. Changes in dietary intake/body weight (A) and changes in body weight (B) were measured for 30 days.
200 mg/kg of DMF was daily administered to leptin receptor-deficient (ob/ob) mice via an oral route. A control group received daily i.p. administration of physiological saline at the same dose. Changes in body weight (A) and changes in dietary intake (B) were measured for 30 days. It was confirmed that dietary intake of the treatment group was regulated to a 60 to 70% level of the control group.
For a variety of NQO1-activating candidate compounds as listed in Table 1 below, a decrease of NAD(P)H was measured based on the aforesaid experimental method (disclosed in Section 10 hereinbefore: NADH recycling assay). In addition, according to the experimental method given in Example 23, the body weight of ob/ob mice after four weeks was measured.
In this connection, the decreasing degree of NAD(P)H was expressed as a relative amount of NAD(P)H measured upon administration of the NQO1-activating candidate compound, by taking the amount of NAD(P)H in the absence of the NQO1 activator NAD(P)H to be 100. In addition, the degree of the body weight loss was expressed as a percentage of the body weight of ob/ob mice with administration of the NQO1-activating candidate compound, relative to the body weight of ob/ob mice without administration of the NQO1-activating candidate compound (control) after four weeks.

## CC1(C)CCC2=C(O1)c1ccccc1C(=O)C2=O [βL, 2,2-Dimethyl-3,4-dihydro-2H-benzo[h]chromene-5,6-dione]
cardiomyocytes
  decrease of NAD(P)H: about 40%
[1]; 200 mg/kg daily oral, 56 days
  body weight: effectively decreases body weight
[1]; 200 mg/kg daily oral, after around 10 days
  dietary intake level recovered, relative to control group: 70%
[1]; 200 mg/kg daily oral, at around 10 days
  dietary intake/body weight: notably decreased
[1]; after four weeks, relative to ob/ob mice without administration (control), method of Example 23
  Weight reduction In ob/ob mice (4 wk): −16.8 ± 2.9%
